Consider 1 compound from patent publication US20030187056A1, “Live cell procedures to identify to identify compounds modulating intracellular distribution of phosphodiesterase( pde) enzymes” (priority 2000, published 2003).

One series concerns PDE3. The series is described as follows: PDE3 inhibition (literature values, PDE3/PDE4 specificity). The series is classed as biochemical. Particulars: measure of specificity. The text has this: These compounds are termed specific to PDE4, since they inhibit other PDEs either weakly or not at all. The inverse ratio between IC50 of a compound to PDE4s versus its inhibition of other cAMP-degrading PDEs, such as PDE3s is often used as a measure of specificity.

The subject of a further series is PDE4A probes. Description: Redistribution of the PDE4A probes (summary). As to conditions: compound alone. The series is classed as cell-based.
The next series concerns the target T1, HSPDE4A4-H506N-EGFP (Homo sapiens, UniProt P27815, H506N).
T1 construct: expressed in transfected cells
Description: Spot formation in CHO cells transfected with HSPDE4A4-H506N-EGFP. Particulars: clonal CHO, 23.5 hours. Format: cell-based. Here is the method:
The cells are then fixed with 4% formaldehyde buffer (pH7) for 1 hour, washed with PBS and stained with 1 μM Hoechst 33258 in PBS for 10 minutes at 25° C., then washed twice in PBS. Automated images are collected and analysed for the number of spots per cell as described in Example 2.
Cells are grown in HAM's F12 medium plus 10% FBS plus various concentrations of inhibitors for 23.5 hours. The cells are then fixed with 4% formaldehyde buffer (pH7) for 1 hour, washed with PBS and stained with 1 μM Hoechst 33258 in PBS for 10 minutes at 25° C., then washed twice in PBS. Automated images are collected and analysed for the number of spots per cell as described in Example 2.

The next series concerns the target T2, HSPDE4A4-EGFP (Homo sapiens, UniProt P27815).
T2 construct: expressed in transfected cells
The series is described as follows: Dispersal of preformed Rolipram-induced spots, HSPDE4A4-EGFP CHO cells. The series is classed as cell-based. Particulars: yes/no.

The target of another series is T3, HSPDE4A1-EGFP (Homo sapiens, UniProt P27815).
T3 construct: the ca. 1.95 kb coding region of HSPDE4A1 (GenBank Acc.no. U97584) is amplified; expressed in transfected cells
T3 sequence (P27815 1-647 isoform P27815-4): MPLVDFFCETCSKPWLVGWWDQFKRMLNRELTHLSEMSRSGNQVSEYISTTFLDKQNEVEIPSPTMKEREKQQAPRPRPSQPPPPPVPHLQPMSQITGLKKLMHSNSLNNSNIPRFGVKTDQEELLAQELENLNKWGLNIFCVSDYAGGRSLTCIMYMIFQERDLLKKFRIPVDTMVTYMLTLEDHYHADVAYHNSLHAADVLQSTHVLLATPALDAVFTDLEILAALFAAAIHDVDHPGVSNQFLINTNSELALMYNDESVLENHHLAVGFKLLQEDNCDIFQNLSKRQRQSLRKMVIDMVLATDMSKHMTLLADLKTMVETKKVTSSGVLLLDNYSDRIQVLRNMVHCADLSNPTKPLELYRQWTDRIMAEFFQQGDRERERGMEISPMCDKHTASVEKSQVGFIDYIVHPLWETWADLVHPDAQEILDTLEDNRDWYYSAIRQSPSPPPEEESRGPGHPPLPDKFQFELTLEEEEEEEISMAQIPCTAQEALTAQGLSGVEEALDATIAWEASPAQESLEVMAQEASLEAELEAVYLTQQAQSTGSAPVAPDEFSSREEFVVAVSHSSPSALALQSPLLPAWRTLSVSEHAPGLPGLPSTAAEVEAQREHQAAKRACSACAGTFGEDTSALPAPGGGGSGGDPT
The series is described as follows: Competitive assay: reversal of Rolipram-induced spot dispersal, HSPDE4A1-EGFP CHO cells. The series is classed as cell-based. Particulars: yes/no.

In another series the target is T4, HSPDE4A4catD-EGFP (Homo sapiens, UniProt P27815+Q08499).
T4 construct: the 3′-end catalytic region of HSPDE4D isoforms (nucleotides 700-2019 of HSPDE4D3 cDNA); HSPDE4A4 N-terminal fragment (nucleotides 1-1023 of L20965); expressed in transfected cells
T4 sequence (P27815+Q08499 fused with the stated changes, form open): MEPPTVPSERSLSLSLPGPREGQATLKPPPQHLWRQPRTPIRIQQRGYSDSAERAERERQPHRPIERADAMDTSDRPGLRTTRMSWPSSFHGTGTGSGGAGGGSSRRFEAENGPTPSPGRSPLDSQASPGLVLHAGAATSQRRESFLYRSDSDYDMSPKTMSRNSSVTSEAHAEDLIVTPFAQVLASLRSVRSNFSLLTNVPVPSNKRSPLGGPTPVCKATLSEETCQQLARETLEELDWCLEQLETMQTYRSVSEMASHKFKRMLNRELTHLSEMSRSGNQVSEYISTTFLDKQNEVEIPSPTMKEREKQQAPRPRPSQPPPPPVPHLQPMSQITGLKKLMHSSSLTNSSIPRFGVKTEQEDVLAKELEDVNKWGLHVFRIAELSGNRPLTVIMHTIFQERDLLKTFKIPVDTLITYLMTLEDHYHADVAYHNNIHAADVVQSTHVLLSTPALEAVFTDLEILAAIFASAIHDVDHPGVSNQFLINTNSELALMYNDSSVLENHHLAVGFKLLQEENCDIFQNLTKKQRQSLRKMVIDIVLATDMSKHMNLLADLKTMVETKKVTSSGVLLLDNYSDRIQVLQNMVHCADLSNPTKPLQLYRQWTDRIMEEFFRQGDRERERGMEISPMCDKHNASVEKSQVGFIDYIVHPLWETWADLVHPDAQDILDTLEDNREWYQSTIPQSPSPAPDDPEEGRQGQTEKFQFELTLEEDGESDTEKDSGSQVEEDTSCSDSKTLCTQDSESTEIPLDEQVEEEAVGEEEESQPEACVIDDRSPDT
The series is classed as cell-based. The text has this:
Transiently transfected or stably transfected (non-clonal) cells are allowed to adhere to chambered coverglasses in HAM's F12 medium containing 10% FBS.

Series [1] relates to PDE4. Particulars: cited from earlier work.
Series [2] concerns T5, PDE4.
T5 construct: other: Saldou et al., 1998; Such an enzyme preparation may be obtained from cells transfected with and expressing the PDE4 enzyme chosen
Particulars: Saldou et al., 1998; read-out: IC50 against PDE4; cited from earlier work.

The conditions of series [3]: human, in vivo; cited from earlier work.

Like-named read-outs stand apart in the source and are kept apart here.

T2 sequence (P27815 whole entry): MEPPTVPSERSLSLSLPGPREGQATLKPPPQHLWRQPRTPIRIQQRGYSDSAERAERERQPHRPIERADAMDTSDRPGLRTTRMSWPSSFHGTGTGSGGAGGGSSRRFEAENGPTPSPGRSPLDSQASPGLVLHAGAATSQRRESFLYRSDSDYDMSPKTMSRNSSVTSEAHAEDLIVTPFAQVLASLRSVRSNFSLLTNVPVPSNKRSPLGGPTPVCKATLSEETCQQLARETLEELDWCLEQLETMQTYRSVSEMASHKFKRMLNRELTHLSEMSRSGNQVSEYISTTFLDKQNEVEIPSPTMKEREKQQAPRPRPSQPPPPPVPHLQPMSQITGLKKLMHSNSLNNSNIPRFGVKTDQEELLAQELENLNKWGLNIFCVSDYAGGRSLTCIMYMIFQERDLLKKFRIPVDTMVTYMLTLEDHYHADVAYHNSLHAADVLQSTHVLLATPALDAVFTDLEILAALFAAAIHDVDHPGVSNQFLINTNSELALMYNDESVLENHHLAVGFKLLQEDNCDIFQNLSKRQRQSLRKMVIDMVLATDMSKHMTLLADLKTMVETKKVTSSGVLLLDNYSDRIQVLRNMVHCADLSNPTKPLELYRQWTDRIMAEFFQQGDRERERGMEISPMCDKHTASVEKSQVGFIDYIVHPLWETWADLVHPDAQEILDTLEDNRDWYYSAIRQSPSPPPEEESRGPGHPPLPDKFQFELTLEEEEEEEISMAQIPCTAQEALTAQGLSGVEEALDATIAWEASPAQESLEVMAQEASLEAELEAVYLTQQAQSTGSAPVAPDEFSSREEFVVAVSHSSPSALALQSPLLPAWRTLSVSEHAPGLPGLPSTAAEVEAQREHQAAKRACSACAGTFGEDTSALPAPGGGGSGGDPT
T1 sequence (P27815 whole entry H506N): as the sequence (P27815 whole entry) above, with H506N counted along it

As for `O=c1c2cccnc2n(-c2cccc([N+](=O)[O-])c2)c(=O)n1Cc1ccncc1` [RS25344], the “(IC50 PDE3)/(IC50 PDE4)” value in the series with PDE3 is on record as 1,170,000. Further, the “redistribution of the PDE4A probes” value with PDE4A probes was “indistinguishable from those induced by Rolipram treatment”. At HSPDE4A4-H506N-EGFP, the EC50 (as a rule, the concentration that produces a half-maximal response) is 125 nM. Further, the “Removal of Rolipram-induced PDE4A4-spots” value at HSPDE4A4-EGFP is recorded as “no”. Besides, the “Reversal of Rolipram-induced removal of PDE4A1 spots” value at HSPDE4A1-EGFP is “no”. Moreover, the “spot formation (in words)” value at HSPDE4A4catD-EGFP (1 μM RS25344 32 hours, stably transfected, 10 μM Rolipram 26 hours, transiently transfected) was “Many cells in this stable population respond by forming pairs of bright spots”. Also, the “time until spots begin to be visible” value on HSPDE4A4catD-EGFP (after addition of 1 μM RS25344) is given as “about 6 hours”. In addition, in the series with PDE4 [1] (literature values quoted in Example 5 (Saldou 1998; Ahluwalia 1982; Rubin 1991), read-out: IC50 against PDE4), the IC50 (usually the point on the concentration scale where inhibition reaches its midpoint) is 0.28 nM. Also, the “Inhibition of PDE4 catalytic activity” value in the series with PDE4 [1] (yes/no) is “yes”. Moreover, in the series with PDE4 [2], the IC50 was 0.28 nM. Further, in series [3], the Clinical effect entry is listed as “anti-” and the Emesis entry is given as “yes”.
